Assay: gradient 5% acetonitrile 3 min, to 50% in 2 min, to 85% in 15 min, held 3 min, 100 µL/min
Settings: column: Zorbax Extend-C18 2.1 x 50 mm; eluents: water / acetonitrile, 0.1% formic acid
In short: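 Data were gathered over 3 months by HPLC coupled to a quadrupole time-of-flight mass spectrometer, operated in positive and negative ionization mode. Mixtures of ~100 pure standards ran on a Zorbax Extend-C18 column (2.1 × 50 mm, 1.8 μm) at 100 μL/min, with water and acetonitrile each containing 0.1% formic acid and dead and dwell volumes of 40 μL and 900 μL. Retention time was read from adduct peaks picked by computer and checked manually.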
An RP-LC retention time of 938 s was found for `COC(=O)c1cc(S(=O)(=O)N2CCCC2C(=O)Nc2ccc(F)cc2Cl)cn1C` (centres undefined) in this work. An RP-LC retention time of 836 s was found for `CC(C)(C)NC(=O)N1CCC(CNC(=O)C(=O)Nc2ccccc2Cl)CC1` in this work. An RP-LC retention time of 614 s was found for `CC1CCN(c2ncc3c(n2)CCC(C(=O)NC(C)c2ccccn2)C3)CC1` (centres undefined) in this work. An RP-LC retention time of 1160 s was found for `Fc1ccc(Cc2noc(-c3nc(-c4ccccc4)no3)n2)cc1` in this work. An RP-LC retention time of 858 s was found for `Cn1nccc1C(=O)NCc1ccc(-c2nc(-c3cccs3)no2)s1` in this work. An RP-LC retention time of 1060 s was found for `Cc1cc(C)c2c(-n3cccc3)nn(Cc3ccc(C(=O)NCc4ccco4)cc3)c2n1` in this work. An RP-LC retention time of 1180 s was found for `CC(C)c1cc(C(=O)Nc2cc(F)cc(F)c2)nc2ccnn12` in this work. An RP-LC retention time of 837 s was found for `Cc1cc2c(cc1S(=O)(=O)N1CCCC1C(=O)N(Cc1ccccc1)C(C)C)OCC(=O)N2` (centres undefined) in this work. An RP-LC retention time of 690 s was found for `CCc1cccc(NS(=O)(=O)c2cc3n(c2)CCCNC3=O)c1` in this work. An RP-LC retention time of 731 s was found for `CCOc1ccc2c(n1)CCN(C(=O)NC1CCCC1)C2` in this work. An RP-LC retention time of 970 s was found for `Cn1cnc([N+](=O)[O-])c1S(=O)(=O)Oc1cccc2ccccc12` in this work. An RP-LC retention time of 888 s was found for `CN1C(=O)c2cc(C(=O)N3CCC(C(N)=O)CC3)nn2CC1(C)C(=O)NC1CCCC1` (centres undefined) in this work. An RP-LC retention time of 607 s was found for `CC(C)NC(=O)CN1CCN(C(=O)c2sc3ncccc3c2-n2cccc2)CC1` in this work. An RP-LC retention time of 608 s was found for `Cc1oc(-c2ccc(C(=O)N3CCN(C)CC3)cc2)nc1CS(=O)(=O)c1ccccc1` in this work. An RP-LC retention time of 1150 s was found for `COc1cccc(-c2nc(C3CCN(S(=O)(=O)c4ccc(F)c(C)c4)CC3)no2)c1` in this work. An RP-LC retention time of 593 s was found for `CN(C)C(=O)c1ccc2c(c1)N(CC(=O)NCCCN1CCOCC1)C(=O)C1CCCCN21` (centres undefined) in this work. An RP-LC retention time of 905 s was found for `O=C(CC1CCCC1)NCCC1CCN(C(=O)Nc2cc(F)cc(F)c2)CC1` in this work. An RP-LC retention time of 699 s was found for `CCNC(=O)C1CCCN(S(=O)(=O)c2c[nH]c(C(=O)N3CCCCCC3)c2)C1` (centres undefined) in this work. An RP-LC retention time of 708 s was found for `CCn1cc(CCNC(=O)c2c(F)cccc2Cl)c2cccnc21` in this work. An RP-LC retention time of 912 s was found for `O=C(NCCOc1ccc(F)cc1)C(=O)Nc1ccc(Cl)cn1` in this work. An RP-LC retention time of 643 s was found for `Cc1oc2c(c1C(=O)Nc1ccc(F)c(F)c1)C1=NCCN1C=N2` in this work. An RP-LC retention time of 610 s was found for `Nc1nc2ccc([N+](=O)[O-])cc2[nH]1` in this work. An RP-LC retention time of 626 s was found for `CCCS(=O)(=O)N1CC(n2cc(C(=O)N(C)C)nn2)C1` in this work. An RP-LC retention time of 768 s was found for `Cc1ccc(CNC(=O)c2ccc(NC(=O)C3CC3)cc2N2CCOCC2)o1` in this work. An RP-LC retention time of 697 s was found for `O=C(Cc1nnc(-c2ccc3ncccc3c2)o1)Nc1ccc(F)cc1` in this work. An RP-LC retention time of 811 s was found for `CCn1c(=O)c(N2CCN(C(=O)NCc3ccco3)CC2)nc2ccccc21` in this work. An RP-LC retention time of 1020 s was found for `CCOC(=O)c1cc(S(=O)(=O)N2CCCC2C(=O)Nc2cc(C)cc(C)c2)cn1C` (centres undefined) in this work. An RP-LC retention time of 1000 s was found for `COC(=O)c1cccc(C(=O)Nc2ccc(Br)cc2F)n1` in this work. An RP-LC retention time of 680 s was found for `Cc1ccc2c(Nc3ccc(F)c(F)c3)c(C(=O)N3CCCC3)cnc2n1` in this work. An RP-LC retention time of 1050 s was found for `COc1ccc(N2CC(c3nc(-c4ccc(C)cc4)no3)CC2=O)cc1Cl` (centres undefined) in this work. An RP-LC retention time of 742 s was found for `Cc1ccc(-n2nnc(-c3nc(C)c(C(=O)N4CCC(C(N)=O)CC4)s3)c2C)cc1C` in this work. An RP-LC retention time of 944 s was found for `Cc1[nH]c(C(=O)N2CCCC(C(=O)NC3CCCCCC3)C2)c(C)c1C(=O)OC(C)C` (centres undefined) in this work. An RP-LC retention time of 1160 s was found for `CCCc1ccc(S(=O)(=O)N2C[C@@H]3C(=O)N(C(CC)c4cccs4)C(=O)[C@@H]3C2)cc1` (some centres undefined) in this work. An RP-LC retention time of 859 s was found for `O=C(NC1CC1)C1CCN(c2nc(-c3ccc(Cl)cc3)no2)CC1` in this work. An RP-LC retention time of 890 s was found for `Cc1nc(N2CCOCC2)c2c(C(=O)Nc3cccc(Cl)c3)c(C)oc2n1` in this work. An RP-LC retention time of 1290 s was found for `Cc1ccccc1Oc1nccnc1N1CCCC(C(=O)NCc2cccc(Br)c2)C1` (centres undefined) in this work. An RP-LC retention time of 679 s was found for `Cc1ccc2nc(CN3CCN(C(=O)Nc4ccccc4C)CC3)oc2c1` in this work. An RP-LC retention time of 1080 s was found for `N#Cc1cccc(NS(=O)(=O)c2cccc(-c3nc(-c4ccccc4)no3)c2)c1` in this work. An RP-LC retention time of 725 s was found for `Cc1cccc(NS(=O)(=O)c2cc(-c3[nH]ncc3C(=O)N3CCCC3)oc2C)c1C` in this work. An RP-LC retention time of 598 s was found for `O=C(Nc1ccccc1)C1CCCN(c2nnc3ccccn23)C1` (centres undefined) in this work. An RP-LC retention time of 863 s was found for `CC1CCC2(CC1)NC(=O)N(CC(=O)NCCc1ccc(Cl)cc1)C2=O` (centres undefined) in this work. An RP-LC retention time of 696 s was found for `CN(C)S(=O)(=O)c1ccc2c(c1)N(CC(=O)NCC1COCCO1)C(=O)C1CCCCN21` (centres undefined) in this work. An RP-LC retention time of 966 s was found for `Cc1ccccc1NS(=O)(=O)c1c(C)c(-c2nnc(C3CCC3)o2)n(C)c1C` in this work. An RP-LC retention time of 860 s was found for `CCOc1ccc(NC(=O)Cn2c(=O)c(CCC(=O)NC3CCCC3)nc3ccccc32)cc1` in this work. An RP-LC retention time of 638 s was found for `Cc1ccc(CN2CCC(CNC(=O)c3ccc4c(c3)NC(=O)C3CCCCN43)CC2)cc1` (centres undefined) in this work. An RP-LC retention time of 1030 s was found for `Cc1[nH]c(C(=O)N2CCC(CC(=O)NCc3ccccc3F)CC2)c(C)c1C(=O)OC(C)C` in this work. An RP-LC retention time of 853 s was found for `NC(=O)c1ccccc1NC(=O)Cc1cn(Cc2ccccc2)c2ccccc12` in this work. An RP-LC retention time of 1110 s was found for `COc1cc(OC)cc(-c2nc(C3CC(=O)N(c4ccc(F)c(Cl)c4)C3)no2)c1` (centres undefined) in this work. An RP-LC retention time of 700 s was found for `CCC1CCCCN1CCNC(=O)c1sc2cccc(F)c2c1OC` (centres undefined) in this work. An RP-LC retention time of 821 s was found for `Cc1ccc(N2CC(C(=O)Nc3cc(-c4ccco4)no3)CC2=O)cc1` (centres undefined) in this work. An RP-LC retention time of 727 s was found for `CCCN1CCN(C2CCN(C(=O)C(CC)CC)CC2)C1=O` in this work. An RP-LC retention time of 972 s was found for `COc1ccc(C(=O)N2CCc3cc(-c4csc(C)n4)ccc32)cc1` in this work. An RP-LC retention time of 773 s was found for `Cc1cc(S(=O)(=O)N2CCN(C3CCN(CCC(C)C)C3=O)CC2)ccc1Cl` (centres undefined) in this work. An RP-LC retention time of 919 s was found for `CC1(C(=O)NC2CCCCCCC2)CN(S(C)(=O)=O)CC(=O)N1c1cccc(F)c1` (centres undefined) in this work. An RP-LC retention time of 797 s was found for `CN1CCCCCCN(C(=O)c2ccsc2)[C@H]2CCC[C@H]2C1=O` in this work. An RP-LC retention time of 980 s was found for `COc1ccc(Cl)cc1NC(=O)NCCc1cn(CC(C)C)c2ncccc12` in this work. An RP-LC retention time of 1190 s was found for `Cc1ccc(S(=O)(=O)N2CCCCCC2)cc1-c1nnc(-c2ccccc2)o1` in this work. An RP-LC retention time of 706 s was found for `CCOC(=O)c1coc(NC(=O)Nc2cccs2)n1` in this work. An RP-LC retention time of 648 s was found for `CCN(CCNC(=O)CCc1cc2cc(C)ccc2[nH]c1=O)Cc1ccccc1` in this work. An RP-LC retention time of 641 s was found for `CCCCCCCNCc1ccc2c(c1)n(C)c(=O)n2C` in this work. An RP-LC retention time of 930 s was found for `CCc1ccc(NC(=O)Cn2c(=O)cc(-c3nc(C)no3)c3ccccc32)cc1` in this work. An RP-LC retention time of 786 s was found for `CCOC(=O)c1ccc(CN2C(=O)CSC2=O)cc1` in this work. An RP-LC retention time of 710 s was found for `Cc1ccc2nc(C)c(NC(=O)C3c4ccccc4Oc4ccccc43)c(=O)n2c1` in this work. An RP-LC retention time of 642 s was found for `c1cc(-c2nc(-c3ccc4c(c3)nnn4CCN3CCCCC3)no2)co1` in this work. An RP-LC retention time of 692 s was found for `O=C(c1ccco1)N1CCC2(CC1)NC(=O)N(Cc1ccc(F)cc1)C2=O` in this work. An RP-LC retention time of 878 s was found for `Cn1c(=O)n(C)c2cc(S(=O)(=O)c3ccccc3)c(NC(=O)c3ccccc3F)cc21` in this work. An RP-LC retention time of 838 s was found for `CC(Oc1cccc(Cl)c1)c1nc(-c2ccc3c(c2)ncn3CCC(=O)N2CCCC2)no1` (centres undefined) in this work. An RP-LC retention time of 741 s was found for `CCn1cc(CN2CCC(C(=O)NC3CCCCCC3)CC2)c2cc(OC)ccc21` in this work. An RP-LC retention time of 831 s was found for `CCc1nc2c(NC(=O)c3sccc3C)cccn2n1` in this work. An RP-LC retention time of 1220 s was found for `Cc1ccc(-c2nc(-c3ccc4c(c3)nc(C)c(=O)n4C)no2)c(C)c1` in this work. An RP-LC retention time of 602 s was found for `CC(NC(=O)COc1ccccc1)C(=O)N1CCN(c2ccccn2)CC1` (centres undefined) in this work. An RP-LC retention time of 795 s was found for `O=C1CC(C(F)(F)F)c2c(c(C(=O)O)cn2-c2cccc(Br)c2)N1` (centres undefined) in this work. An RP-LC retention time of 1040 s was found for `CCOC(=O)C1CCCN(c2cc(-n3nc(C)cc3C)ncn2)C1` (centres undefined) in this work. An RP-LC retention time of 877 s was found for `COc1ccccc1-c1noc(C2CCCN2C(=O)Nc2ccc(C)cc2)n1` (centres undefined) in this work. An RP-LC retention time of 1270 s was found for `CCOC(=O)c1c(C)oc2ncnc(Nc3ccc(OC)c(Cl)c3)c12` in this work. An RP-LC retention time of 734 s was found for `O=C1C(c2cccs2)N(Cc2ccco2)C(=O)CN1c1ccccc1` (centres undefined) in this work. An RP-LC retention time of 1050 s was found for `CC1(C)CC2CC(C)(CN2c2nc(-c3ccc([N+](=O)[O-])cc3)nc3ccccc23)C1` (centres undefined) in this work. An RP-LC retention time of 584 s was found for `CCC(=O)N1CCc2cc(N3CC(C(=O)N4CCN(c5ccccn5)CC4)CC3=O)ccc21` (centres undefined) in this work. An RP-LC retention time of 568 s was found for `CNC(=O)c1cc(C)nc2c(C)cc(C)cc12` in this work. An RP-LC retention time of 1120 s was found for `Cc1cc(C(=O)NCc2cc(F)cc(F)c2)nc2cc(-c3cccs3)nn12` in this work. An RP-LC retention time of 781 s was found for `CC1CS(=O)(=O)N(c2cccc(C(=O)N3CCCc4ccccc43)c2)C1=O` (centres undefined) in this work. An RP-LC retention time of 886 s was found for `Cc1ccsc1C(=O)Nc1ccc2c(c1)Sc1ncccc1C(=O)N2C(C)C` in this work. An RP-LC retention time of 854 s was found for `O=C(NC1(c2nc(-c3cccnc3)no2)CCCCC1)c1n[nH]c2c1CCCC2` in this work. An RP-LC retention time of 686 s was found for `COc1ccccc1N1CCN(C(=O)C2CC(=O)N(c3n[nH]c4cccc(F)c34)C2)CC1` (centres undefined) in this work. An RP-LC retention time of 560 s was found for `CCN1CCN(c2cc(C)c3cc(NC(=O)c4ccco4)ccc3n2)CC1` in this work. An RP-LC retention time of 1040 s was found for `O=C(COc1ccccc1[N+](=O)[O-])Nc1nc(-c2ccccc2)cs1` in this work. An RP-LC retention time of 665 s was found for `COc1cccc(NC(=O)Nc2c(-c3ccccc3)nc3ccccn23)c1` in this work. An RP-LC retention time of 733 s was found for `CCN1C(=O)C2(C(C#N)=C(N)Oc3n[nH]c(-c4ccccc4)c32)c2ccccc21` (centres undefined) in this work. An RP-LC retention time of 797 s was found for `Cc1ccccc1CNC(=O)c1ccc(CN2CCN(Cc3ccccc3)C(=O)C2=O)cc1` in this work.
